From US11279744B2, “Neuropeptide Y fragment capable of releasing hematopoietic stem cells into blood and treating osteoporosis” (Kyungpook National University Industry-Academic Cooperation …, priority 2017, dated 2022) come the findings set out here.

“Also recorded” adds a separate entry of the source. Non-standard residues stand in square brackets, D forms with d. No end group written: not given here.

The subject of assay [1] is osteoclasts in bone marrow. The experiment in a line: TRAP staining of osteoclasts in bone marrow of osteoporosis animal models. The assay is classed as in vivo, mouse. The settings on record: OVX mice, 50 μg/kg i.p. twice a day for 4 weeks; compared to PBS. The method, then:
To make an osteoporosis model, 10-18 12 weeks old female mice per group underwent ovarian ablation. A week later, 50 μg/kg of NPY(21-28), NPY D^25(21-28), NPY D^26(21-28), NPY D^25,26(21-28), Osteopep2, NPY and 100 μl of PBS(Gibco) were intraperitoneally administered twice a day for 4 weeks at 12 hour intervals. Alendronate (Sigma), used as a competitive drug, was intraperitoneally administered once a week for 4 weeks at a dose of 50 μg/kg. As a control group, only Sham model of osteoporosis was performed by subcutaneous dissection of female mouse. Mice were placed in experimental groups using the Block randomization method, and all mouse experiments were approved through the Kyungpook National University Institutional Animal Care and Use Committee.
The femurs were separated from the mice and fixed in 4% paraformaldehyde for 24 hours, and tissue was decalcified in 10% EDTA for 5 weeks. It was then dehydrated with a series of diluted alcohols, paraffinized, and prepared into […] paraffin sections.
For TRAP staining, sections were deparaffinized, stained with 1.33 mM Fast Red Violet LB Salt (Sigma-Aldrich) in 50 mM sodium acetate (pH 5.0) containing 225 μM Naphthol AS-MX phosphate (Sigma-Aldrich, St Louis, Mo., USA), 0.84% N, N-dimethylformamide (Sigma-Aldrich) and 50 mM sodium tartrate, and incubated for 30 minutes. After incubation, the sections were washed with distilled water and counterstained with 1% methyl green.
Histomorphometric analysis was performed using the OsteoMeasure program (Extensive interactive Bone Histomorphometry Analysis System).
After the last administration at 4 weeks of NPY (21-28), the femurs were separated from the mice and the number of osteoclasts in the bone marrow was measured by TRAP staining.
After the last administration at 4 weeks of NPY D^25(21-28), NPY D^26(21-28), and NPY D^25,26(21-28), the femurs were separated from the mice and the number of osteoclasts in the bone marrow was measured by TRAP staining.

The test system of assay [2] is myelopoiesis progenitor cells in the blood. Kind of assay: Colony-forming unit (CFU) assay, progenitor cells in blood of osteoporosis animal models. Type of assay: in vivo, mouse. The following applies: OVX mice, 50 μg/kg i.p. twice a day for 4 weeks, blood 1 hour after last dose. As to the method:
To make an osteoporosis model, 10-18 12 weeks old female mice per group underwent ovarian ablation. A week later, 50 μg/kg of NPY(21-28), NPY D^25(21-28), NPY D^26(21-28), NPY D^25,26(21-28), Osteopep2, NPY and 100 μl of PBS(Gibco) were intraperitoneally administered twice a day for 4 weeks at 12 hour intervals. Alendronate (Sigma), used as a competitive drug, was intraperitoneally administered once a week for 4 weeks at a dose of 50 μg/kg. As a control group, only Sham model of osteoporosis was performed by subcutaneous dissection of female mouse. Mice were placed in experimental groups using the Block randomization method, and all mouse experiments were approved through the Kyungpook National University Institutional Animal Care and Use Committee. CFU analysis was performed to determine the number of bone marrow hematopoietic progenitor cells in the blood of mice. After anesthetizing the mouse first, 500 μl to 700 μl of blood were collected in a heparin tube by cardiac drawing, and then placed in ammonium chloride solution (Stem Cell Technologies, Inc. 1:10) and placed on ice for 15 minutes to remove red blood cells. The red blood cells were well shaken at intervals of 2 to 3 minutes and centrifuged at 1000 rpm for 7 minutes. The supernatant was removed and washed with IMDM (Gibco) supplied with 2% fetal bovine serum (FBS, Gibco). The washed cells (3×10^5 per mouse) were divided into three 35 mm dishes containing methylcellulose-based media (Methocult, Stem cell), and after the cells were incubated for two weeks, the number of colonies formed in the flask was counted. In order to investigate whether the NPY (21-28) of the present invention affects the blood release of myelopoiesis stem cells in the animal models of osteoporosis, the following experiments were carried out according to the methods of Examples 1-1, 1-3, 1-4, and 1-5. In order to make animal models of osteoporosis, 12 weeks old C57BL/6 female mice were subjected to ovarian ablation for 10 to 18 animals in each group. One week later, 50 μg/kg of NPY (21-28) and 100 μl of PBS (Gibco) were intraperitoneally administered twice a day for 4 weeks at 12 hour intervals. As a control group, mice that underwent only subcutaneous incisions in normal mice were used. Weight change was measured weekly, and bone marrow and blood were collected one hour after the last dose at 4 weeks, and the release of myelopoiesis progenitor and stem cells into blood was analyzed. The positive control group, NPY (21-36), Osteopep2 and full length NPY (50 μg/kg, intraperitoneally administered twice a day for 4 weeks) were used. Alendronate used as a competitive drug for osteoporosis treatment was intraperitoneally administered at a dose of 50 μg/kg for 4 weeks once a week. […]

As to YSALRHYI [NPY (21-28)], in assay [1], the “number of TRAP positive osteoclasts in bone marrow (Number of osteoclast/Bone surface)” value (“number … (Number of osteoclast/Bone surface)” below) was “superior to Osteopep2 and NPY; also recorded: superior to the competitive drug Alendronate”; the “osteoclast surface (Osteoclast surface/Bone surface)” value was “superior to Osteopep2 and NPY; also recorded: superior to the competitive drug Alendronate”. For the same substance, in assay [2], the “releasing myelopoiesis progenitor cells into blood (CFU assay)” value is “increases; also recorded: superior to Osteopep2 and NPY”.
With “NPY D^25(21-28): peptide in which arginine, the fifth amino acid of the amino acid sequence of NPY (21-28), is modified to D-type (YSAL[dR]HYI)”, in assay [1], the “number … (Number of osteoclast/Bone surface)” value is reported as “reduced” and the “osteoclast surface (Osteoclast surface/Bone surface)” value is given as “reduced”. The “releasing myelopoiesis progenitor cells into blood (CFU assay)” value in assay [2] was “increases”.
Turning to “NPY D^25,26(21-28): peptide in which both the fifth and sixth amino acids of NPY (21-28) are modified to D-form (YSAL[dR][dH]YI)”, in assay [1], the “number … (Number of osteoclast/Bone surface)” value is given as “reduced; also recorded: highest efficiency” and the “osteoclast surface (Osteoclast surface/Bone surface)” value is “reduced”. In addition, the “releasing myelopoiesis progenitor cells into blood (CFU assay)” value in assay [2] was “increases”. Further, the “releasing myelopoiesis progenitor cells into blood (CFU assay)” value in assay [2] (listed as NPY D^25,26 (21-28)) is “highest efficiency; also recorded: even better than that of NPY (21-28)”.
